Source: US20260132103A1, “Bumetanide Derivatives for the Therapy of Stroke and Other Neurological Diseases/Disorders Involving NKCCs” (University of Pittsburgh - Of the Commonwealth System of …, priority 2018, published 2026)

What was measured:
[1] = tested on: transient focal cerebral ischemia (tMCAO) in mice; assay: Brain infarct volume and swelling after transient focal cerebral ischemia (tMCAO); assay type: in vivo, mouse; details: 24 h reperfusion, i.p.
Procedure: (§1) FIGS. 1A-1C: Efficacy of NKCC1 inhibitors in reducing ischemic infarction, cerebral edema, and the post-stroke survival in normotensive mice after tMCAO (see Example 3). (1A) Experimental protocol and data collection. Transient middle cerebral artery occlusion (tMCAO) was induced in normal C57/b6 mice. DMSO, BMT (10 mg/kg body weight), STS5 (13 mg/kg) or STS66 (12 mg/kg) was administered via intraperitoneal injection (i.p.) as described in method. (1 B) Representative TTC staining images in normotensive mice at 24 h reperfusion with quantitative analysis of infarct volume. Data are mean±SD, n=6-13 (male, n=3-9; female, n=3-4, *p<0.05). Scale: 5 mm. (1C) Percentage hemisphere swelling at 24 h reperfusion. Data are mean±SD, n=6-13, *p<0.05. (1D) Body weight change during 1-14 days after tMCAO. Data are mean±SD, n=5-9 (male, n=4; female, n=2, *p<0.05). (1E) Survival curve during 1-14 day after tMCAO. Data are mean±SD, n=5-9 (male, n=3-7; female, n=2, *p<0.05).
(§2) Transient focal cerebral ischemia was induced in mice by intraluminal occlusion of the left middle cerebral artery (MCA) for 50 min as described previously (Chen H et al., 2005). Mice were anesthetized with 3% isoflurane in 70%: 30% N2O/O2 until they were unresponsive to the tail pinch test. Animals were then fitted with a nose cone blowing 1.5% isoflurane for anesthesia maintenance. The left common carotid artery was exposed and the occipital artery branches of the external carotid artery were isolated and coagulated. The internal carotid artery was isolated and the extracranial branch was dissected and ligated. A rubber silicon-coated monofilament suture (6-0) was introduced into the internal carotid artery lumen and gently advanced approximately 8-9 mm to block the MCA blood flow for 50 min. The rectal temperature was maintained at 37.0±0.5° C. during surgery through a temperature-controlled heating pad. Achievement of ischemia was confirmed by monitoring regional cerebral blood flow (rCBF) with laser speckle contrast imager (Pericam). For reperfusion, the suture was withdrawn after the MCAO. The incision was closed and the mouse recovered under a heating lamp to maintain the core temperature (36.0-37.0° C.) during the 30-60 min recovery period. After recovery, animals were returned to their cages with free access to food and water.
(§3) Vehicle: DMSO (2 ml/kg body weight/day), the NKCC1 inhibitor bumetanide (BMT, 10 mg/kg body weight/day in DMSO), bumetanide's prodrug STS5 (13 mg/kg body weight/day in DMSO), or the novel NKCC1 inhibitor STS66 according to the invention (12 mg/kg body weight/day in DMSO) was administered via intraperitoneal injection (i.p). The initial half dose of the drugs (BMT, STS5, STS66) was given at 3 h after the onset of reperfusion and the second half dose at 8 h reperfusion in the tMCAO model.
At 24 h post-reperfusion, mice were anesthetized with 5% isoflurane and then decapitated. Coronal brain slices (2 mm thickness) were stained with 1% 2,3,5-triphenyltetrazolium chloridemonohydrate (TTC) for 20-30 min and brain slices were scanned (Begum G et al., 2015). Ischemic lesions were traced in each slice in a blinded manner, and the total volume of infarction was calculated with correction for edema, as described by Swanson et al., 1990 using ImageJ software. Infarct areas were summed across all slices and multiplied by slice thickness to yield total infarct volume (mm^3). Brain swelling was determined with the following formula. For tMCAO: swelling (% contralateral hemispheric volume)=[(ipsilateral hemispheric volume)−(contralateral hemispheric volume)]/(contralateral hemispheric volume)×100, as described before (Guo Q G et al., 2009; Sunghee Cho et al., 2005).

[2] = tested on: transient focal cerebral ischemia (tMCAO) in mice; assay: Body weight and survival 1-14 days after tMCAO; assay type: in vivo, mouse
Procedure: as §1, §2, §3

CCCCNc1cc(C(=O)OCCN(C)C)cc(S(N)(=O)=O)c1Oc1ccccc1 [STS5]
infarct volume in female mice ([1]; female mice only, STS5 13, STS66 12 mg/kg/day): 46.9±5.0 mm^3 | hemispheric edema (hemisphere swelling) ([1]; normotensive C57BL/6j mice, half dose at 3 h and 8 h reperfusion, BMT 10, STS5 13, STS66 12 mg/kg/day, mean±SD): 12.6±4.5% | infarct volume ([1]; normotensive C57BL/6j mice, male and female combined, half dose at 3 h and 8 h reperfusion, BMT 10, STS5 13, STS66 12 mg/kg/day, mean±SD): 49.5±20.6 mm^3 | body weight changes ([2]; 1-14 days after tMCAO, versus DMSO Veh control): no differences in the body weight changes | mortality rate ([2]; between 1-14 days post tMCAO, BMT 10, STS5 13, STS66 12 mg/kg/day i.p.): ~66.7%
